In US20110263507A1 (priority 2007, published 2011):
Like-named read-outs stand apart in the source and are kept apart here. Where a SMILES comes first, the peptide text is derived from it. [ ]: non-standard residue; d: D form. Ala(indol-4-yl) = N[C@@H](Cc1cccc2[nH]ccc12)C(=O)O; d1Nal = N[C@H](Cc1cccc2ccccc12)C(=O)O; NMeR = CN[C@@H](CCCNC(=N)N)C(=O)O; Tle = CC(C)(C)[C@H](N)C(=O)O

Experiments:
Tail flick test = format: in vivo; details: rats, 20 mg/kg intraperitoneally, FIG. 6
Experimental: The tail flick test also measures changes in nociceptive threshold to thermal stimulus. The rats were administered 20 mg/kg of NT79 intraperitoneally. The rat was placed in a restrainer. Water was heated to 52° C. (52-54° C.). The rat's tail was immersed in the heated water. The latency to flick the tail was recorded. A 10 sec cutoff period was used to prevent tissue damage. Antinociception was expressed as a percentage of the Maximal Possible Effect (MPE) % MPE=100×(test latency−baseline latency)/(cutoff time {10 s}−baseline latency). Analgesic compounds will result in higher % MPE.

hNTS2 = molecular target: T1, hNTS2 (Homo sapiens, UniProt O95665); test: Radioligand competition binding with [3H]NT, membranes of CHO-K1 cells expressing hNTS2
T1 construct: expressed in transfected cells; host or cells: CHO-K1

[1] = Acetic acid-induced writhing test; format: in vivo; details: rats, 20 mg/kg intraperitoneally, FIG. 7
Experimental: The writhing test was used to measure changes in the nociceptive threshold to a chemical stimulus. The rats were administered 20 mg/kg of NT79 intraperitoneally. The rats were also injected with 0.5 ml of a 2% (v/v) aqueous solution of acetic acid and placed individually in clear plastic containers for observation.
Behavioral Measure: The number of writhes was counted during a 60 min observation period. A writhe was defined as stretching of the hind limbs accompanied by a contraction of abdominal muscles. Analgesic compounds will result in lower number of writhes.

hNTS1 = molecular target: T2, hNTS1 (Homo sapiens, UniProt P30989); test: Radioligand competition binding with [3H]NT, membranes of CHO-K1 cells expressing hNTS1
T2 construct: expressed in transfected cells; host or cells: CHO-K1

6-keto-prostaglandin F1α = test: Plasma prostaglandin levels after injection; format: in vivo; details: mice, 30 min after injection; NT69 2 mg/kg, NT79 20 mg/kg intraperitoneally; compared to saline; surrogate marker for hypotension
Experimental: Blood samples from 3 mice were pooled for each condition.
Therefore, in preliminary studies, levels of 6-keto-prostaglandin F1α immunoreactivity were measured after injection of saline, NT69, or NT79 into mice (FIG. 8).

[2] = Body temperature lowering in mice; format: in vivo; details: intraperitoneal
Source text: At time “0” baseline readings were made. […] The thermistor probe was inserted 2 cm into the rectum for the measurement of body temperature.

[3] = Degradation of peptides in plasma in vitro (stability to plasma peptidases); format: in vitro ADME; details: peptide incubated with human (FIG. 4) or rat plasma; read-out: half-lives in plasma
Experimental: All peptides that were stable (half-lives >100 h), such as NT66, NT67, NT69, NT72, and NT73, have either a blocked amino group (N-Methyl-Arg) or a D-amino in the 8 or 9 position (Table 4).

T2 sequence (P30989 whole entry): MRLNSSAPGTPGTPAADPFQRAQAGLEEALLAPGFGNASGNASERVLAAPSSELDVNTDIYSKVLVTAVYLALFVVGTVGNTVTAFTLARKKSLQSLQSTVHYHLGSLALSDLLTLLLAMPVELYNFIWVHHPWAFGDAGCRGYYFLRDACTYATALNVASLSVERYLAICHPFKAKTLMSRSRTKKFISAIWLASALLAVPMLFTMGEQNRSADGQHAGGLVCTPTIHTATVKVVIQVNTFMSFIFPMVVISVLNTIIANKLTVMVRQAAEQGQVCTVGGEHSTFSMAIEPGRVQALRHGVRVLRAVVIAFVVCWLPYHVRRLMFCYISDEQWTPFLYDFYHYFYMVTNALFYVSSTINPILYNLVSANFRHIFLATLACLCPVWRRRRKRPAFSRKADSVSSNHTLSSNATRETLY
T1 sequence (O95665 whole entry): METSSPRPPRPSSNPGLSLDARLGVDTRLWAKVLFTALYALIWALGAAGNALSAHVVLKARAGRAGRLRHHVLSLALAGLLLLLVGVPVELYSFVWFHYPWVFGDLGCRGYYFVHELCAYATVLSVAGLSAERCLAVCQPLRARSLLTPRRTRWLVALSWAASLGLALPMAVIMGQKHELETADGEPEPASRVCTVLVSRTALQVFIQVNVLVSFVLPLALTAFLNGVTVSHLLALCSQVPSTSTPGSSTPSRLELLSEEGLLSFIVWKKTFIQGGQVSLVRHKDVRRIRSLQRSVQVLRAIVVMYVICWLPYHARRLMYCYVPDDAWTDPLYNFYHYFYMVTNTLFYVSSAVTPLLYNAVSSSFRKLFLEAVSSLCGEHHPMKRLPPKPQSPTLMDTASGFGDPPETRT

| SMILES | antinociceptive effect in tail flick assay (Tail flick test) | Kd (hNTS2) | hNTS2 Selectivity (hNTS2; Table 2, hNTS2 over hNTS1) | hNTS2 Selectivity (hNTS2; Table 4) | selectivity for hNTS2 (hNTS2; text) | antinociceptive effect in writhing pain model [1] | Kd (hNTS1) | Kd (hNTS1; Kd at hNTS1) | plasma levels of prostaglandin (6-keto-prostaglandin F1α immunoreactivity) (6-keto-prostaglandin F1α) | effect on body temperature ([2]; 10 times the dosage of that for NT69, FIG. 5) | Kd (hNTS2; Table 2, read-out: hNTS2 Geometric Mean ∀ SEM (equilibrium dissociation constant Kd)) | half-life [3] | hNTS1 Selectivity (hNTS1; Table 2, hNTS1 over hNTS2) | Kd (hNTS1; read-out: hNTS1 Geometric Mean ∀ SEM (equilibrium dissociation constant Kd)) | change in body temperature (decrease) ([2]; FIG. 5) |
| --- | --- | --- | --- | --- | --- | --- | --- | --- | --- | --- | --- | --- | --- | --- | --- |
| CN[C@@H](CCCNC(=N)N)C(=O)N[C@@H](CCCNC(=N)N)C(=O)N1CCC[C@H]1C(=O)N[C@H](Cc1cccc2ccccc12)C(=O)N[C@H](C(=O)N[C@@H](CC(C)C)C(=O)O)C(C)(C)C [NT79, [N-methyl-Arg^8,D-3,1-Nal^11,tert-Leu^12]NT(8-13)] (H-[NMeR]RP[d1Nal][Tle]L-OH; C-terminus assumed) | demonstrated antinociceptive effects | 22 nM | 82 | 82 | 82 fold | robust antinociceptive effect | 1800 nM | ~1800 nM | no effect | minimal effects | – | – | – | – | – |
| CN[C@@H](CCCNC(=N)N)C(=O)N[C@@H](CCCCN)C(=O)N1CCC[C@H]1C(=O)N[C@@H](Cc1cccc2[nH]ccc12)C(=O)N[C@H](C(=O)N[C@@H](CC(C)C)C(=O)O)C(C)(C)C [NT69L, [N-methyl-Arg^8,L-Lys^9,L-neo-Trp^11,tert-Leu^12]NT(8-13)] (H-[NMeR]KP[Ala(indol-4-yl)][Tle]L-OH; C-terminus assumed) | – | – | 1.5 | 1.5 | – | – | – | – | markedly elevated | – | 2.1 ± 0.2 nM | > 100 h | 0.7 | 3.1 ± 0.4 nM | about 10 °C |
